This is an account of results in patent US20250305004A1, “ENHANCING GENE TARGETING EFFICIENCY IN HUMAN CELLS WITH DNA-PK INHIBITOR TREATMENT” (The Board of Trustees of the Leland Stanford Junior …, priority 2022, published 2025).

The target in assay [1] is T1, ATM (Homo sapiens, UniProt Q13315).
T1 construct: various PI3K family kinases in A549 cells (data adapted from previous study); host or cells: A549 cells
To be noted: A549 cells; cited from earlier work.

Assay [2] concerns the target T2, ATR (Homo sapiens, UniProt Q13535).
T2 construct: various PI3K family kinases in A549 cells (data adapted from previous study); host or cells: A549 cells
To be noted: A549 cells; cited from earlier work.

In assay [3] the target is T3, PI3Kγ (Homo sapiens, UniProt P48736).
T3 construct: various PI3K family kinases in A549 cells (data adapted from previous study); host or cells: A549 cells
To be noted: A549 cells; cited from earlier work.

The test system of assay [4] is HBA1 locus in PSCs. Kind of assay: RNP/AAV6 gene targeting / gene replacement at HBA1 locus in PSCs. The format is cell-based, human. As for the experimental part: (§1) Gene targeting efficiency was measured by droplet digital PCR (ddPCR) and flow cytometry (for GFP) to measure the allelic targeting efficiency (FIG. 2B) and percentage of targeted cells (FIG. 2C) respectively. […] The treatment was carried out for 24 hours post gene targeting and the efficiency was calculated 1 week post gene targeting using ddPCR analysis.
(§2) First, we tested the treatment for editing the sickle cell disease (SCD) and cystic fibrosis (CF) mutations at HBB and CFTR loci respectively using the previously described Cas9 RNP and AAV6 donor reagents in WT PSC^71-73 (FIG. 19a-d).
PSC culture and genome editing. […] For each nucleofection, RNP complex was prepared with 5 μg of Cas9 protein and 2 μg of gRNA and incubated for 15 mins at room temperature. PSCs were dissociated into single cells using Accutase (Innovative Cell Technologies, cat: AT104). […] Resuspended cells were added to one well of a 16-well Nucleocuvette Strip (Lonza) and nucleofection was performed in the 4D nucleofector (Lonza) using the program, CA137. Nucleofected PSCs were plated in mTeSR1 medium supplemented with 10 μM of Y27632 at a density of 100,000 cells per well in 48-well plate, AAV6 vector and DNA-PKcs inhibitors were added to the medium at indicated concentrations. […] From the following day, PSCs were cultured in mTeSR1 without Y27632. Gene targeting efficiency was analyzed at 4-6 days post-editing.
(§3) ddPCR analysis of targeted integration. Gene targeting efficiency for the knock-in of multi-kb sequences was measured through digital droplet PCR (ddPCR) analysis. […] After PCR, the droplets were analyzed using the QX200 Droplet Digital PCR reader (Biorad) and Quantasoft software was used to determine the number of copies of the target and reference DNA in the droplets. The allelic gene targeting efficiency was calculated as the percentage of target DNA copies relative to that of the reference. […]
(§4) ICE analysis for quantification of gene editing. […] Following PCR, the amplicons were detected on agarose gel and purified from the gel using GeneJet Gel Extraction Kit (Thermo Fisher Scientific, cat: K0692). […]

Assay [5] has as its system HBB locus in PSCs. Kind of assay: RNP/AAV6 gene targeting at HBB locus in PSCs. To be noted: UBC-GFP-bGHpA knock-in; 0.5 μM. The format is cell-based, human. As for the experimental part: as §1, §2
PSC culture and genome editing. […] Gene targeting efficiency was analyzed at 4-6 days post-editing.
as §3, §4

The subject of assay [6] is CCR5 locus in PSCs. The assay can be described thus: RNP/AAV6 gene targeting at CCR5 locus, knock-in of UBC-GFP-bGHpA (2.6 kb), PSCs. It counts as cell-based, human. To be noted: tested at 1, 0.1 and 0.01 μM. As for the experimental part: as §1
PSC culture and genome editing. […] For each nucleofection, RNP complex was prepared with 5 μg of Cas9 protein and 2 μg of gRNA and incubated for 15 mins at room temperature. PSCs were dissociated into single cells using Accutase (Innovative Cell Technologies, cat: AT104). […] Gene targeting efficiency was analyzed at 4-6 days post-editing.
as §3, §4

T2 sequence (Q13535 whole entry): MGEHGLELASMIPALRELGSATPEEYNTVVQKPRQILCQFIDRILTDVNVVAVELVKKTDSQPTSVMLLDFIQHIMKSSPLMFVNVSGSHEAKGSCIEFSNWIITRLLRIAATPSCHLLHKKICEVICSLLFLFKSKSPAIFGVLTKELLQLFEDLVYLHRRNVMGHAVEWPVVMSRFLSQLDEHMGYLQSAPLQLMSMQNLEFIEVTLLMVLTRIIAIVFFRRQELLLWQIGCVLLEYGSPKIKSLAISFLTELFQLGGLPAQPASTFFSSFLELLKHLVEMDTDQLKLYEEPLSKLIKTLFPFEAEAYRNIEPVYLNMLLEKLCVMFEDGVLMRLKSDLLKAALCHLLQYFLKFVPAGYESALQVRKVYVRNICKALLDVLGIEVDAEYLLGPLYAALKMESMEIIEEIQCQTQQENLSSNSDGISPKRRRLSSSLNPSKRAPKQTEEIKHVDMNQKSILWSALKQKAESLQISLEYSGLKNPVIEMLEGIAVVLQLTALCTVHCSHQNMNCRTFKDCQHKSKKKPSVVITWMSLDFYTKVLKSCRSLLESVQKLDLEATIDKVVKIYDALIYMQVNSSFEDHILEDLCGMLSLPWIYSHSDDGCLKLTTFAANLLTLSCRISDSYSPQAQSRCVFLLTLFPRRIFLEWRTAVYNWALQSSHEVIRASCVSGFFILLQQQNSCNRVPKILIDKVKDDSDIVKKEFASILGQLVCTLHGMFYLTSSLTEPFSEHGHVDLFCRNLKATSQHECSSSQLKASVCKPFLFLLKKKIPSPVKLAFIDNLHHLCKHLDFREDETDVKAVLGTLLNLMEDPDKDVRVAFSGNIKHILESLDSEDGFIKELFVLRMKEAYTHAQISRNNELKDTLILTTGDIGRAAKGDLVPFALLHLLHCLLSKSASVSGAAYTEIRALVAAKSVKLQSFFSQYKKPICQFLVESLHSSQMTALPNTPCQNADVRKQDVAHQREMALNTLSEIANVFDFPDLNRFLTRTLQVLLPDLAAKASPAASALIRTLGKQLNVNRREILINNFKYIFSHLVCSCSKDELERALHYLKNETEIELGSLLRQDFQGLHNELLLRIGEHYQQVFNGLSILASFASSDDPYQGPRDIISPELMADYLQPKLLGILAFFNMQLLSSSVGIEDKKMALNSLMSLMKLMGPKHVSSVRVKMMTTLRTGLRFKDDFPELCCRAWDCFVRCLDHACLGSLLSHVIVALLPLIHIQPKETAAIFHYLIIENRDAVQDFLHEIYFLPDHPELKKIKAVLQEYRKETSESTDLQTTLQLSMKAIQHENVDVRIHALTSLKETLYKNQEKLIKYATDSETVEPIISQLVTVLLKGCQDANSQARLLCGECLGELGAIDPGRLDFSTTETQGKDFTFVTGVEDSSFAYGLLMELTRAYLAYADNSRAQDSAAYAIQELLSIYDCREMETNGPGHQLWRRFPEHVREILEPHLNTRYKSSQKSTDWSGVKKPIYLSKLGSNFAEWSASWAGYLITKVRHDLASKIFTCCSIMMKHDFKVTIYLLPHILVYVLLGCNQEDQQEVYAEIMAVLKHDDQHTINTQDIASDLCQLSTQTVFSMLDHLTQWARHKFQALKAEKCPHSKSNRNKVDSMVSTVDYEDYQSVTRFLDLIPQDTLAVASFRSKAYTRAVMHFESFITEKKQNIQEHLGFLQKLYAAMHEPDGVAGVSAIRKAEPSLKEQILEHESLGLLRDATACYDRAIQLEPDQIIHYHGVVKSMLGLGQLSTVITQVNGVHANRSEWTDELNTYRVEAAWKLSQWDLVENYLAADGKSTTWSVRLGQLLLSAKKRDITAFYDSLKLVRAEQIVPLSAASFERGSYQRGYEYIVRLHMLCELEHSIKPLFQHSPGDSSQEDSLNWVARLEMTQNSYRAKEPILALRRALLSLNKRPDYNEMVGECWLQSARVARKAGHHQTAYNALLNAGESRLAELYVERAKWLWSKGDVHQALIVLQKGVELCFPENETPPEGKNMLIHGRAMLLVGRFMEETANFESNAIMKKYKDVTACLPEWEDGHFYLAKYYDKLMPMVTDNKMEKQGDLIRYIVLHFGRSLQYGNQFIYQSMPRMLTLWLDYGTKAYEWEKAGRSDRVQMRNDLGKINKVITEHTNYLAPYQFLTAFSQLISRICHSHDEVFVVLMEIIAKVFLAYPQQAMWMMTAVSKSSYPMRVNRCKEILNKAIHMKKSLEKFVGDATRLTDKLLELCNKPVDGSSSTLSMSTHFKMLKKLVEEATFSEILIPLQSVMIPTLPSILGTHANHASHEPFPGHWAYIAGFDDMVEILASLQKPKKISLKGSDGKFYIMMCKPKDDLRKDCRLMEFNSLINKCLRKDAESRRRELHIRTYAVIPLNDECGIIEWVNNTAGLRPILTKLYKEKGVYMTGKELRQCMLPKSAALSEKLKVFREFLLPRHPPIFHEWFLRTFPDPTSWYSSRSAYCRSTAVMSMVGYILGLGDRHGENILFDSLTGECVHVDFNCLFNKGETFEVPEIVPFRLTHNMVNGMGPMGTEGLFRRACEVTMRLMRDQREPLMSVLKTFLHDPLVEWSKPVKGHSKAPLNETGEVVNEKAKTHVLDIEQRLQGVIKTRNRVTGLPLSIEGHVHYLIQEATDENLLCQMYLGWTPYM
T2 sequence (Q8WXE1 whole entry partner): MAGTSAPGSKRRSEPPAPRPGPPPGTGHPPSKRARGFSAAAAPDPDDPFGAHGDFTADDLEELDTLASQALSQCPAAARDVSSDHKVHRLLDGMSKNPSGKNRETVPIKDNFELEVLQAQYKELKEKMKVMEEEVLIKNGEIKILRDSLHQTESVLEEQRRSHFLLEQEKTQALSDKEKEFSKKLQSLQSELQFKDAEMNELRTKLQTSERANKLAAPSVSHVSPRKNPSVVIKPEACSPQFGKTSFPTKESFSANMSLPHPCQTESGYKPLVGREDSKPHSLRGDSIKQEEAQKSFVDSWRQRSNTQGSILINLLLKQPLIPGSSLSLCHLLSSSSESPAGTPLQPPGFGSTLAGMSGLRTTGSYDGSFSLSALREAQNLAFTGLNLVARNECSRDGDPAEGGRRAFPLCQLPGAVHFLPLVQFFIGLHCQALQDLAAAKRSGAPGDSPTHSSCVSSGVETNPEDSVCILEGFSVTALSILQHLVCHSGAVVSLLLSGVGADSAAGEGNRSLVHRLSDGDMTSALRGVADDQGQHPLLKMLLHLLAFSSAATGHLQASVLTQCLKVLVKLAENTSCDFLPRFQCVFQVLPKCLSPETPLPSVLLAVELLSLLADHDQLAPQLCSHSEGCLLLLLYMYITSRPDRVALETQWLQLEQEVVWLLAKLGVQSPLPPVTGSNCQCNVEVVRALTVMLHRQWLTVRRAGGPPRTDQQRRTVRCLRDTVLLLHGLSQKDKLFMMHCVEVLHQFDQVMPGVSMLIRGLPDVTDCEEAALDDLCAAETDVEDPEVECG
T3 sequence (P48736 whole entry): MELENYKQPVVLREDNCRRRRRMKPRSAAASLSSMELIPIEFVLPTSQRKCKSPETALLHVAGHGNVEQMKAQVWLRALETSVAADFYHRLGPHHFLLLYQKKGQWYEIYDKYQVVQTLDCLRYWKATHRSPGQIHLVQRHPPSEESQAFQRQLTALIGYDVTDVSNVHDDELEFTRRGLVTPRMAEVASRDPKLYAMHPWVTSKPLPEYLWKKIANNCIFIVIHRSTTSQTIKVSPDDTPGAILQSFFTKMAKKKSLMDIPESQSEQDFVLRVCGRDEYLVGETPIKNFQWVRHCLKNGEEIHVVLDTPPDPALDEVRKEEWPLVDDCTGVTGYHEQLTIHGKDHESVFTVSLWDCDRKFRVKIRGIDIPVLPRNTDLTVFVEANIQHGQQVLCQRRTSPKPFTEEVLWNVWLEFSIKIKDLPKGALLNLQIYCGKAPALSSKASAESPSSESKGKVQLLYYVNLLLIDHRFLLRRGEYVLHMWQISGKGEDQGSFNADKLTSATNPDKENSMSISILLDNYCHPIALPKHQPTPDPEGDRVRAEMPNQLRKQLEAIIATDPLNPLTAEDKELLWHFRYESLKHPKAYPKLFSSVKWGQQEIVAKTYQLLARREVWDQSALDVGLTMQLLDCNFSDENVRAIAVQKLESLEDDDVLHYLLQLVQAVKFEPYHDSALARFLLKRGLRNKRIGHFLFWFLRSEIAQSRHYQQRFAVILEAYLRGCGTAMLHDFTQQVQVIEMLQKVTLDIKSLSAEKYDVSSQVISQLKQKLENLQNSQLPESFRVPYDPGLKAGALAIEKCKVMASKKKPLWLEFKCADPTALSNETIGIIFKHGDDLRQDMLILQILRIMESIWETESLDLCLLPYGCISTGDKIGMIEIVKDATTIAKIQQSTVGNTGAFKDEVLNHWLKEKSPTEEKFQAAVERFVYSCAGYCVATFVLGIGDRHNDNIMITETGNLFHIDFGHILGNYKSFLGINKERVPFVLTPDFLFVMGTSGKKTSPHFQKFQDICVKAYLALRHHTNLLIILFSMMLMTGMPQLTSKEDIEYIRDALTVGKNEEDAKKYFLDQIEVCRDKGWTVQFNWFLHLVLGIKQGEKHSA

Take `COc1ccc([C@@H](O)c2cc(-c3ncnc4cc(N5CCOCC5)ccc34)c(F)cc2Cl)nn1` [M3814]: the concentration for half-maximal inhibition (IC50) is > 30 µM in assay [1], > 30 µM in assay [2] and 1.59 µM in assay [3]. Moreover, the “effect on gene targeting vs untreated” value in assay [4] (0.5 μM) and in assay [5] was “less prominent effect” in each case. Besides, the “concentration at which gene replacement is improved” value in assay [4] (tested at 2 and 0.5 μM) is given as “effective only at the higher concentration”. In addition, the “concentration at which gene targeting is enhanced” value in assay [6] is “effective only at 1 μM”.

What is called IC50 is the midpoint of a concentration-inhibition curve.
